{"source": "patent US6562828B1", "about": "“Amidine compounds” (Japan Tobacco Inc., priority 1998, dated 2003)", "key": {"Human FXa": {"biological_target": "T1, Human FXa (Homo sapiens, UniProt P00742)", "T1 construct": "Human FXa [Enzyme research Laboratories (USA)] enzyme; purchased Enzyme Research Laboratories (USA)", "T1 sequence (P00742 235-488 limits assumed)": "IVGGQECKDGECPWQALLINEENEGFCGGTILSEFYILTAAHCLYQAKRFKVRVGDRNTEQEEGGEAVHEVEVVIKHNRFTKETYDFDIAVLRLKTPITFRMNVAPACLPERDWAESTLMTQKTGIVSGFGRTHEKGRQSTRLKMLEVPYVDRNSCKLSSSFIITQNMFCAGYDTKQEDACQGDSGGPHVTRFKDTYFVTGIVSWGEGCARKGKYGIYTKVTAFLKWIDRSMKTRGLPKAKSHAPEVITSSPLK", "T1 sequence (P00742 41-179 partner limits assumed)": "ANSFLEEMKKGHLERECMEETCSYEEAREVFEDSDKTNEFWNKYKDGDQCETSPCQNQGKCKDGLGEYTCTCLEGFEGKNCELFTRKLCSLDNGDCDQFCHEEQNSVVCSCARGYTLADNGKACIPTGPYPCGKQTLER", "assay": "Determination of anti-factor Xa (FXa) activity, synthetic substrate S-2222", "format": "biochemical", "conditions": "S-2222, 37° C., pH 8.4, read-out: Experimental Example 1: anti-FXa activity, IC50", "method": "Determination of Anti-factor Xa (FXa) Activity\nHuman FXa [Enzyme research Laboratories (USA)] enzyme (40 μl, 0.16U/ml) and test compounds (40 l) adjusted to various concentrations were incubated in 0.1M Tris (Tris-hydroxymethyl-aminomethane) buffer (pH 8.4) containing 0.2M sodium chloride (herein to be referred to as 0.1 M tris-0.2M NaCl buffer) (40 μl) at 37° C. for 10 min. A synthetic substrate S-2222 (Daiichi Pure Chemical (Tokyo, Japan), 40 μl) adjusted to 0.8 mM was added and the mixture was incubated at 37° C. for 10 min. The reaction was stopped by addition of 60% acetic acid (40 μl) and absorbance at 405 nm was measured by Model 3550 (BIO-RAD). For the control, the solvent was used instead of the test compound."}, "Human FIIa": {"biological_target": "T2, Human FIIa (Homo sapiens, UniProt P00734)", "T2 construct": "purchased Sigma", "assay": "Determination of anti-factor IIa (FIIa) activity, synthetic substrate S-2238", "format": "biochemical", "conditions": "S-2238, 37° C., pH 8.4, read-out: Experimental Example 2: anti-FIIa activity, IC50"}}, "note": "Counter-ions that a name gives are not always drawn."}
{"molecule": "N=C(N)N1CCc2ccc(OCC3CCN(c4ccncc4)CC3)cc2C1", "note": "[Example 1, 7-[1-(Pyridin-4-yl)piperidin-4-ylmethoxy]-1,2,3,4-tetrahydroisoquinoline-2-carboxamidine Dihydrochloride]", "values": [{"measurement": "IC50", "setting": "Human FXa", "result": 60, "unit": "nM"}, {"measurement": "IC50", "setting": "Human FIIa", "result": "> 10000", "unit": "nM"}]}
{"molecule": "N=C(N)N1CCc2ccc(OCC3CCN(c4ccnc5ccccc45)CC3)cc2C1", "note": "[Example 2, 7-[1-(Quinolin-4-yl)piperidin-4-ylmethoxy]-1,2,3,4-tetrahydroisoquinoline-2-carboxamidine Dihydrochloride]", "values": [{"measurement": "IC50", "setting": "Human FXa", "result": 400, "unit": "nM"}, {"measurement": "IC50", "setting": "Human FIIa", "result": "> 10000", "unit": "nM"}]}
{"molecule": "N/C(=N/O)N1CCc2ccc(OCC3CCN(c4ccncc4)CC3)cc2C1", "note": "[Example 4, 7-[1-(Pyridin-4-yl)piperidin-4-ylmethoxy]-1,2,3,4-tetrahydroisoquinoline-2-carboxamide Oxime Dihydrochloride]", "values": [{"measurement": "IC50", "setting": "Human FXa", "result": 600, "unit": "nM"}, {"measurement": "IC50", "setting": "Human FIIa", "result": "> 10000", "unit": "nM"}]}
{"molecule": "CCOC(=O)C1(COc2ccc3c(c2)CN(C(=N)N)CC3)CCN(c2ccncc2)CC1", "note": "[Example 6, 4-(2-Amidino-1,2,3,4-tetrahydroisoquinolin-7-yloxymethyl)-1-(pyridin-4-yl)piperidine-4-carboxylic Acid Ethyl Ester Dihydrochloride]", "values": [{"measurement": "IC50", "setting": "Human FXa", "result": 80, "unit": "nM"}, {"measurement": "IC50", "setting": "Human FIIa", "result": "> 10000", "unit": "nM"}]}
{"molecule": "CCOC(=O)C1(COc2ccc3c(c2)CN(C(=N)N)CC3)CCN(c2cc(C)nc(C)c2)CC1", "note": "[Example 10, 4-(2-Amidino-1,2,3,4-tetrahydroisoquinolin-7-yloxymethyl)-1-(2,6-dimethylpyridin-4-yl)piperidine-4-carboxylic Acid Ethyl Ester Dihydrochloride]", "values": [{"measurement": "IC50", "setting": "Human FXa", "result": 700, "unit": "nM"}, {"measurement": "IC50", "setting": "Human FIIa", "result": "> 10000", "unit": "nM"}]}
{"molecule": "Cc1cc(N2CCC(COc3ccc4c(c3)CN(C(=N)N)CC4)(C(=O)O)CC2)cc(C)n1", "note": "[Example 11, 4-(2-Amidino-1,2,3,4-tetrahydroisoquinolin-7-yloxymethyl)-1-(2,6-dimethylpyridin-4-yl)piperidine-4-carboxylic Acid Dihydrochloride]", "values": [{"measurement": "IC50", "setting": "Human FXa", "result": 300, "unit": "nM"}, {"measurement": "IC50", "setting": "Human FIIa", "result": "> 10000", "unit": "nM"}]}
{"molecule": "CCOC(=O)C1(COc2ccc3c(c2)CN(C(=N)N)CC3)CCN(c2ccnc(C)c2)CC1", "note": "[Example 12, 4-(2-Amidino-1,2,3,4-tetrahydroisoquinolin-7-yloxymethyl)-1-(2-methylpyridin-4-yl)piperidine-4-carboxylic Acid Ethyl Ester Dihydrochloride]", "values": [{"measurement": "IC50", "setting": "Human FXa", "result": 600, "unit": "nM"}]}
{"molecule": "Cc1cc(N2CCC(COc3ccc4c(c3)CN(C(=N)N)CC4)(C(=O)O)CC2)ccn1", "note": "[Example 13, 4-(2-Amidino-1,2,3,4-tetrahydroisoquinolin-7-yloxymethyl)-1-(2-methylpyridin-4-yl)piperidine-4-carboxylic Acid Dihydrochloride]", "values": [{"measurement": "IC50", "setting": "Human FXa", "result": 200, "unit": "nM"}, {"measurement": "IC50", "setting": "Human FIIa", "result": "> 10000", "unit": "nM"}]}
{"molecule": "N=C(N)N1CCc2ccc(OCC3(C(=O)O)CCN(c4ccncn4)CC3)cc2C1", "note": "[Example 14, 4-(2-Amidino-1,2,3,4-tetrahydroisoquinolin-7-yloxymethyl)-1-(pyrimidin-4-yl)piperidine-4-carboxylic Acid Dihydrochloride]", "values": [{"measurement": "IC50", "setting": "Human FXa", "result": 100, "unit": "nM"}, {"measurement": "IC50", "setting": "Human FIIa", "result": "> 10000", "unit": "nM"}]}
{"molecule": "CCOC(=O)C1(CCOc2ccc3c(c2)CN(C(=N)N)CC3)CCN(c2ccncc2)CC1", "note": "[Example 15, 4-[2-(2-Amidino-1,2,3,4-tetrahydroisoquinolin-7-yloxy)ethyl]-1-(pyridin-4-yl)piperidine-4-carboxylic Acid Ethyl Ester Dihydrochloride]", "values": [{"measurement": "IC50", "setting": "Human FXa", "result": 200, "unit": "nM"}]}
{"molecule": "N=C(N)N1CCc2ccc(OCCC3(C(=O)O)CCN(c4ccncc4)CC3)cc2C1", "note": "[Example 16, 4-[2-(2-Amidino-1,2,3,4-tetrahydroisoquinolin-7-yloxy)ethyl]-1-(pyridin-4-yl)piperidine-4-carboxylic Acid Dihydrochloride]", "values": [{"measurement": "IC50", "setting": "Human FXa", "result": 200, "unit": "nM"}, {"measurement": "IC50", "setting": "Human FIIa", "result": "> 10000", "unit": "nM"}]}
{"molecule": "N=C(N)N1CCc2ccc(OCC3CCN(CCO)CC3)cc2C1", "note": "[Example 21, 7-[1-(2-Hydroxyethyl)piperidin-4-ylmethoxy]-1,2,3,4-tetrahydroisoquinoline-2-carboxamidine Dihydrochloride]", "values": [{"measurement": "IC50", "setting": "Human FXa", "result": 700, "unit": "nM"}, {"measurement": "IC50", "setting": "Human FIIa", "result": "> 10000", "unit": "nM"}]}
{"molecule": "N=C(N)N1CCc2ccc(OCC3CCN(Cc4ccncc4)CC3)cc2C1", "note": "[Example 22, 7-[1-(Pyridin-4-ylmethyl)piperidin-4-ylmethoxy-1,2,3,4-tetrahydroisoquinoline-2-carboxamidine Trihydrochloride]", "values": [{"measurement": "IC50", "setting": "Human FXa", "result": 800, "unit": "nM"}, {"measurement": "IC50", "setting": "Human FIIa", "result": "> 10000", "unit": "nM"}]}
{"molecule": "CC(=N)N1CCC(COc2ccc3c(c2)CN(C(=N)N)CC3)CC1", "note": "[Example 29, 7-(1-Acetimidoylpiperidin-4-ylmethoxy)-1,2,3,4-tetrahydroisoquinoline-2-carboxamidine Dihydrochloride]", "values": [{"measurement": "IC50", "setting": "Human FXa", "result": 500, "unit": "nM"}, {"measurement": "IC50", "setting": "Human FIIa", "result": "> 10000", "unit": "nM"}]}
{"molecule": "N=C(N)N1CCc2ccc(OCC3CCN(C(=N)Cc4ccccc4)CC3)cc2C1", "note": "[Example 30, 7-(1-Phenylacetimidoylpiperidin-4-ylmethoxy)-1,2,3,4-tetrahydroisoquinoline-2-carboxamidine Dihydrochloride]", "values": [{"measurement": "IC50", "setting": "Human FXa", "result": 400, "unit": "nM"}, {"measurement": "IC50", "setting": "Human FIIa", "result": "> 10000", "unit": "nM"}]}
{"molecule": "N=C(N)N1CCc2ccc(OCC3CCN(c4ccc(NC(=O)c5ccccc5)cn4)CC3)cc2C1", "note": "[Example 32, N-[2-[4-(2-Amidino-1,2,3,4-tetrahydroisoquinolin-7-yloxymethyl)-piperidin-1-yl]pyridin-5-yl]benzamide Dihydrochloride]", "values": [{"measurement": "IC50", "setting": "Human FXa", "result": 400, "unit": "nM"}, {"measurement": "IC50", "setting": "Human FIIa", "result": "> 10000", "unit": "nM"}]}
{"molecule": "CCOC(=O)/C=C/c1cnccc1N1CCC(COc2ccc3c(c2)CN(C(=N)N)CC3)CC1", "note": "[Example 33, 3-[4-[4-(2-Amidino-1,2,3,4-tetrahydroisoquinolin-7-yloxymethyl)-piperidin-1-yl]pyridin-3-yl]-2-propenoic Acid Ethyl Ester Dihydrochloride]", "values": [{"measurement": "IC50", "setting": "Human FXa", "result": 300, "unit": "nM"}, {"measurement": "IC50", "setting": "Human FIIa", "result": "> 10000", "unit": "nM"}]}
{"molecule": "COC(=O)c1cnccc1N1CCC(COc2ccc3c(c2)CN(C(=N)N)CC3)CC1", "note": "[Example 34, 4-[4-(2-Amidino-1,2,3,4-tetrahydroisoquinolin-7-yloxymethyl)-piperidin-1-yl]pyridine-3-carboxylic Acid Methyl Ester Dihydrochloride]", "values": [{"measurement": "IC50", "setting": "Human FXa", "result": 200, "unit": "nM"}, {"measurement": "IC50", "setting": "Human FIIa", "result": "> 10000", "unit": "nM"}]}
{"molecule": "N#CC1(CCOc2ccc3c(c2)CN(C(=N)N)CC3)CCN(c2ccncc2)CC1", "note": "[Example 37, 7-[2-[4-Cyano-1-(pyridin-4-yl)piperidin-4-yl]ethoxy]-1,2,3,4-tetrahydroisoquinoline-2-carboxamidine Dihydrochloride]", "values": [{"measurement": "IC50", "setting": "Human FXa", "result": 40, "unit": "nM"}, {"measurement": "IC50", "setting": "Human FIIa", "result": "> 10000", "unit": "nM"}]}
{"molecule": "N=C(N)c1ccc2ccc(OCC3(C(=O)O)CCN(c4ccncc4)CC3)c(Cl)c2c1", "note": "[Example 39, 4-(2-Amidino-8-chloronaphthalen-7-yloxymethyl)-1-(pyridin-4-yl)piperidine-4-carboxylic Acid Dihydrochloride]", "values": [{"measurement": "IC50", "setting": "Human FXa", "result": 500, "unit": "nM"}, {"measurement": "IC50", "setting": "Human FIIa", "result": "> 10000", "unit": "nM"}]}
{"molecule": "CCOC(=O)CCc1cnccc1N1CCC(COc2ccc3c(c2)CN(C(=N)N)CC3)CC1", "note": "[Example 88, 3-[4-[4-(2-Amidino-1,2,3,4-tetrahydroisoquinolin-7-yloxymethyl)piperidin-1-yl]pyridin-3-]propionic Acid Ethyl Ester Dihydrochloride]", "values": [{"measurement": "IC50", "setting": "Human FXa", "result": 200, "unit": "nM"}]}
{"molecule": "N=C(N)c1ccc2c(c1)nc(CN(C(=O)c1ccc(C(=O)O)cc1)c1ccc(OC3CCN(C(=N)NCc4ccccc4)CC3)cc1)n2CC(=O)NC1CCCCC1", "note": "[Example 110, N-[5-Amidino-1-(cyclohexylcarbamoylmethyl)benzimidazol-2-ylmethyl]-N-[4-[1-[amino(benzylinino)methyl]piperidin-4-yloxy]phenyl]carbamoylbenzoic Acid Dihydrochloride]", "values": [{"measurement": "IC50", "setting": "Human FXa", "result": 80, "unit": "nM"}]}
